Test results taken from patent publication US20140378408A1, “NUCLEOSIDE 5'-PHOSPHOROTHIOATE ANALOGUES AND USES THEREOF” (BAR-ILAN UNIVERSITY, an Israeli University, priority 2012, published 2014).
Like-named read-outs stand apart in the source and are kept apart here.

How the values were obtained:
human NPP1 = target: T1, human NPP1 (Homo sapiens, UniProt P22413); assay: Inhibition of NPP1 activity; type: biochemical; conditions: for type of inhibition: Dixon and Cornish-Bowden methods; for inhibition of pnp-TMP hydrolysis by NPP1: analogue and pnp-TMP 100 μM
T1 construct: made in house; host or cells: COS-7 cells (transfected; protein extract / cell lysate)
T1 sequence (P22413 1-925): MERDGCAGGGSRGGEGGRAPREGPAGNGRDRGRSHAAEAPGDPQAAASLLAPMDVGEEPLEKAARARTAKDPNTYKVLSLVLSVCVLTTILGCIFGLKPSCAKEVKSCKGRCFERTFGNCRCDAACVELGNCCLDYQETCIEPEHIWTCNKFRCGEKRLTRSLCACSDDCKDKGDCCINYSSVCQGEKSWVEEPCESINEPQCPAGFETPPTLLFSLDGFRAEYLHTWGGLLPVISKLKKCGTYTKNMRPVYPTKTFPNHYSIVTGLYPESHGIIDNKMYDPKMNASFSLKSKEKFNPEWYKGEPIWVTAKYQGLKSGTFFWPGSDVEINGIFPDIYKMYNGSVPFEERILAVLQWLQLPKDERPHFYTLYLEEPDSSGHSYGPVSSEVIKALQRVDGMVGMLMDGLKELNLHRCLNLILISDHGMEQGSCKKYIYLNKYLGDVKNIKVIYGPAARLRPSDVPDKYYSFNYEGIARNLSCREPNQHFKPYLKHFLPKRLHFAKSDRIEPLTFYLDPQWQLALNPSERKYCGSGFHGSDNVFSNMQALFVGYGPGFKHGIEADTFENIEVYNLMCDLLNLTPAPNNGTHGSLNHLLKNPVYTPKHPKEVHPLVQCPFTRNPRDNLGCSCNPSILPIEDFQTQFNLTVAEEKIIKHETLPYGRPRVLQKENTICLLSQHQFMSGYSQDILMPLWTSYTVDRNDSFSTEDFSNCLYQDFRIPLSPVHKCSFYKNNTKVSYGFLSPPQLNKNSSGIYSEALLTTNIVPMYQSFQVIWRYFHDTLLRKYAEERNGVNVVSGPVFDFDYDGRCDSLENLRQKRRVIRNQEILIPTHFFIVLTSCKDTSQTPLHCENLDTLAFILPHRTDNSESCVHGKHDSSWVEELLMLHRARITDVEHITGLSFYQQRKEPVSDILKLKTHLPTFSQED

human NTPDase2 = target: T2, human NTPDase2 (Homo sapiens, UniProt Q9Y5L3); assay: Hydrolysis by human NTPDase2; type: in vitro ADME; conditions: for Hydrolysis by NTPDase2: 100 μM, 1 h, activity with 100 μM ATP = 100%
T2 construct: made in house; host or cells: COS-7 cells (transfected; protein extract)
T2 sequence (Q9Y5L3 1-495): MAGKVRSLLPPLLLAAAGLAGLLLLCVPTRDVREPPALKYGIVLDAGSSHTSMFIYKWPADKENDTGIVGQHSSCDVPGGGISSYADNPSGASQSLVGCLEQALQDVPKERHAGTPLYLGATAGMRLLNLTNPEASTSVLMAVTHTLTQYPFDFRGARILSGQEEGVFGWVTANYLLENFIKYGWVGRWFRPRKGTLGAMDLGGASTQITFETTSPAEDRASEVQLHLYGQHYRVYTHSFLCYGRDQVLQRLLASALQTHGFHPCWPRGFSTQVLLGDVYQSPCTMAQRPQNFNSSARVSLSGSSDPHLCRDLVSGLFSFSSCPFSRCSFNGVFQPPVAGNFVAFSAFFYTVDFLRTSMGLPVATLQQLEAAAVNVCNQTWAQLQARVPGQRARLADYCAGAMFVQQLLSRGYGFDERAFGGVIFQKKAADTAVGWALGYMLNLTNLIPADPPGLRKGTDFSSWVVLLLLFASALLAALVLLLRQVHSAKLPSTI

human NTPDase8 = target: T3, human NTPDase8 (Homo sapiens, UniProt Q5MY95); assay: Inhibition of NTPDase8 activity; type: biochemical; conditions: for effect on human NTPDase8 activity: Table 5, ATP and analogue 100 μM, 100% activity = ATP alone; for inhibition of the hydrolysis of ATP by NTPDase8: analogue and ATP 100 μM
T3 construct: made in house; host or cells: COS-7 cells (transfected; protein extract)
T3 sequence (Q5MY95 1-495): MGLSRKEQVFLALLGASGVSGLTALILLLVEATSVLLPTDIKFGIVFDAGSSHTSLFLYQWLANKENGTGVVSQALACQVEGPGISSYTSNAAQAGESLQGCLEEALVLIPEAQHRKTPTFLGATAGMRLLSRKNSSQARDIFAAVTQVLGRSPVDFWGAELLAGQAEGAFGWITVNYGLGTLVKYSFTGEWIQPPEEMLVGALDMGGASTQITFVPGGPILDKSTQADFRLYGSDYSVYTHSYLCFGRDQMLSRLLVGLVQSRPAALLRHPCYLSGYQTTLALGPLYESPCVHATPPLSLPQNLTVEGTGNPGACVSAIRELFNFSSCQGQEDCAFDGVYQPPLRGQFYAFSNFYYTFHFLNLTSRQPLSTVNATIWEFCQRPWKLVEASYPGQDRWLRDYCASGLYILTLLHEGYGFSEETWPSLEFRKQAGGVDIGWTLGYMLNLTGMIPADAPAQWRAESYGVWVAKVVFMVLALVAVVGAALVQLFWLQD

human NTPDase1 = target: T4, human NTPDase1 (Homo sapiens, UniProt P49961); assay: Hydrolysis by human NTPDase1; type: in vitro ADME; design: made in house; host or cells: COS-7 cells (transfected; protein extract); conditions: for Hydrolysis by NTPDase1: 100 μM, 1 h, activity with 100 μM ATP = 100%
T4 sequence (P49961 1-510): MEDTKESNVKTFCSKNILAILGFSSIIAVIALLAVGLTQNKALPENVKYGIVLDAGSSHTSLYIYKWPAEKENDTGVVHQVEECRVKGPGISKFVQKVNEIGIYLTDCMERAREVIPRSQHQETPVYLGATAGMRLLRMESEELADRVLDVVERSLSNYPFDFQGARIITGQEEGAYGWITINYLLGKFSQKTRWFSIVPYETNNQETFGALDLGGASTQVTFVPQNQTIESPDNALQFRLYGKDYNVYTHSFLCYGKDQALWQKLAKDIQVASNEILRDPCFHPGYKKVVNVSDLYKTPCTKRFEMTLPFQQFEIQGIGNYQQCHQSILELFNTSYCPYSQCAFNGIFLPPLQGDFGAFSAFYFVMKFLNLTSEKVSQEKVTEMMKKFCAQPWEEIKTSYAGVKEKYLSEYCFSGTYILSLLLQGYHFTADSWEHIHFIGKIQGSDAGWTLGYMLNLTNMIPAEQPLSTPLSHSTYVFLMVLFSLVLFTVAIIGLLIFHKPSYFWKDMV

With `Nc1ncnc2c1ncn2[C@@H]1O[C@H](COP(O)(=S)OP(=O)(O)C(Cl)(Cl)P(=O)(O)O)[C@@H](O)[C@H]1O` (single isomer, unassigned) [APPCCl2P-α-S, adenosine 5′-[Pα-thio]-β,γ-(dichloromethylene)triphosphate] the IC50 (human NPP1) was 390 nM, the Ki (human NPP1) was 20 nM and the type of inhibition (human NPP1) was “mixed type inhibition, predominantly competitive”.

With `Nc1ncnc2c1ncn2[C@@H]1O[C@H](COP(O)(=S)OP(=O)(O)C(Cl)(Cl)P(=O)(O)O)[C@@H](O)[C@H]1O` (single isomer, unassigned; isomer a) [APPCCl2P-α-S (isomer A), adenosine 5′-[Pα-thio]-β,γ-(dichloromethylene)triphosphate] the “Hydrolysis by NTPDase2” value (human NTPDase2; listed as APPCCl2P-α-S A) was 5.2 ± 0.1%, the IC50 (human NPP1; NPP1, text, read-out: IC50) was 600 nM and the Ki (human NPP1; NPP1, text, read-out: Ki) was 685 nM. The “effect on human NTPDase8 activity” value (human NTPDase8; listed as APPCCl2P-α-S A) was 4.9 ± 0.2%, the “inhibition of the hydrolysis of ATP by NTPDase8” value (shortened to “inhibition … by NTPDase8”) (human NTPDase8) was “did not interfere” and the “Hydrolysis by NTPDase1” value (human NTPDase1; listed as APPCCl2P-α-S A) was 5.3 ± 0.2%.

In the case of `Nc1ncnc2c1ncn2[C@@H]1O[C@H](COP(O)(=S)OP(=O)(O)CP(=O)(O)O)[C@@H](O)[C@H]1O` (single isomer, unassigned; isomer a) [APPCP-α-S (isomer A), adenosine 5′-[Pα-thio]-β,γ-methylenetriphosphate], the “Hydrolysis by NTPDase2” value (human NTPDase2; listed as APPCP-α-S A) is reported as 4.7%, the Ki (human NPP1; dissociation constant for EIS complex, Cornish-Bowden plot, listed as APPCP-α-S A, read-out: Ki′) is reported as 4500 ± 3 nM and the Ki (human NPP1; pNP-TMP as substrate, Dixon plot, listed as APPCP-α-S A, read-out: Ki) is reported as 4500 ± 30 nM. For the same molecule, the “effect on human NTPDase8 activity” value (human NTPDase8; listed as APPCP-α-S A) was 7.0 ± 0.3%, the “inhibition … by NTPDase8” value (human NTPDase8) was “did not interfere” and the “Hydrolysis by NTPDase1” value (human NTPDase1; listed as APPCP-α-S A) was 4.4%.

With `Nc1ncnc2c1ncn2[C@@H]1O[C@H](COP(O)(=S)OP(=O)(O)C(Cl)(Cl)P(=O)(O)O)[C@@H](O)[C@H]1O` (single isomer, unassigned; isomer b) [APPCCl2P-α-S (isomer B), adenosine 5′-[Pα-thio]-β,γ-(dichloromethylene)triphosphate] the “Hydrolysis by NTPDase2” value (human NTPDase2; listed as APPCCl2P-α-S B) was 5.5%, the Ki (human NPP1; pNP-TMP as substrate, Dixon plot, read-out: Ki) was 15200 ± 100 nM and the “effect on human NTPDase8 activity” value (human NTPDase8; listed as APPCCl2P-α-S B) was 1.5 ± 0.06%. The “inhibition … by NTPDase8” value (human NTPDase8) was “did not interfere” and the “Hydrolysis by NTPDase1” value (human NTPDase1; listed as APPCCl2P-α-S B) was 5.4%.

`Nc1ncnc2c1ncn2[C@@H]1O[C@H](COP(O)(=S)OP(=O)(O)CP(=O)(O)O)[C@@H](O)[C@H]1O` (single isomer, unassigned; isomer b) [APPCP-α-S (isomer B), adenosine 5′-[Pα-thio]-β,γ-methylenetriphosphate] was tested, and the “Hydrolysis by NTPDase2” value (human NTPDase2; listed as APPCP-α-S B) was 5.5 ± 0.3%, the Ki (human NPP1; pNP-TMP as substrate, Dixon plot, listed as APPCP-α-S B, read-out: Ki) was 1300 ± 10 nM and the “effect on human NTPDase8 activity” value (human NTPDase8; listed as APPCP-α-S B) was 0.5 ± 0.01%. The “inhibition … by NTPDase8” value (human NTPDase8) was “did not interfere” and the “Hydrolysis by NTPDase1” value (human NTPDase1; listed as APPCP-α-S B) was 5.4 ± 0.2%.

With `Nc1ncnc2c1ncn2[C@@H]1O[C@H](COP(=O)(O)OP(O)(O)=S)[C@@H](O)[C@H]1O` [ADP-β-S, adenosine 5′-[β-thio]diphosphate, reference compound] the “inhibition of pnp-TMP hydrolysis by NPP1” value (human NPP1) was 95% and the “inhibition … by NTPDase8” value (human NTPDase8) was “less than 50%”.

`Nc1ncnc2c1ncn2[C@@H]1O[C@H](COP(=O)(O)CP(=O)(O)OP(O)(O)=S)[C@@H](O)[C@H]1O` [APCPP-γ-S, adenosine 5′-[Pγ-thio]-α,β-methylenetriphosphate] was tested, and the “Hydrolysis by NTPDase2” value (human NTPDase2) was 4.7 ± 0.2%, the Ki (human NPP1) was < 9000 nM and the type of inhibition (human NPP1) was “mixed type inhibition, predominantly competitive”. The Ki (human NPP1; NPP1, text, read-out: Ki) was 20 nM, the “effect on human NTPDase8 activity” value (human NTPDase8) was 0.50 ± 0.02% and the “Hydrolysis by NTPDase1” value (human NTPDase1) was 5.3 ± 0.2%.

With adenosine-5′-tetrathiobisphosphonate the “Relative hydrolysis by NTPDase2” value (human NTPDase2) was 1 ± 0.2 % ± SD of ADP or AP2A hydrolysis, the “inhibition of pnp-TMP hydrolysis by NPP1” value (human NPP1) was 4% and the “inhibition … by NTPDase8” value (human NTPDase8) was 49%. For the same molecule, the “Relative hydrolysis by NTPDase1” value (human NTPDase1) was 1 ± 0.2 % ± SD of ADP or AP2A hydrolysis.

“di-adenosine-5′,5″-tetrathiobisphosphonate” was tested, and the “inhibition of pnp-TMP hydrolysis by NPP1” value (human NPP1) was ~60% and the “inhibition … by NTPDase8” value (human NTPDase8) was 5-20%.
